Measurements reported in publication PMC10125213 (Journal of Molecular Biology, 2023).
pIC50: −log10 of the molar value. Like-named read-outs stand apart in the source and are kept apart here.

Key:
[1] = target: WT S protein (Severe acute respiratory syndrome coronavirus 2, UniProt P0DTC2); assay: biochemical; format: binding
[2] = target: WT RBD (Severe acute respiratory syndrome coronavirus 2, UniProt P0DTC2); format: binding

## N[C@@H](CCC(=O)N[C@@H](CS)C(=O)NCC(=O)O)C(=O)O [GSH, reduced glutathione]
[1]
  effects on WT S protein: did not exhibit any effects

## CC(=O)N[C@@H](CS)C(=O)O [NAC, N-acetylcysteine]
[1]; 37 °C 60 min
  effects on WT S protein: did not exhibit any effects

## O=C(O)CCP(CCC(=O)O)CCC(=O)O [TCEP, tris-(2-carboxyethyl)phosphine]
[2]
  effect on WT RBD: marginal effect

## NCCCNCCS [WR1065]
[1]; IC50, 37 °C 60 min
  pIC50: 2.00 to 3.00
